Reference: patent publication US20100331315A1, “RHODANINES AND RELATED HETEROCYCLES AS KINASE INHIBITORS” (priority 2009, published 2010)
Read-outs that look alike come from different tables or passages of the source.

Assays:
[1] = tested on: HCT-116 human colorectal carcinoma cells; test: Alamar Blue cell proliferation assay, HCT-116; type: cell-based; details: HCT-116, Table 1, read-out: AB: HCT-116 IC50
Description: (§1) A representative cell-proliferation assay protocol using Alamar Blue dye (stored at 4° C., use 20 ul per well) is described hereafter.
(§2) a. Split and trypsinize cells.
(§3) b. Count cells using hemocytometer.
(§4) c. Plate 4,000-5,000 cells per well in 100 μl of medium and seed into a 96-well plate according to the following plate layout. Add cell culture medium only to wells B10 to B12. Wells B1 to B9 have cells but no compound added.
(§5) d. Add 100 μl of 2× drug dilution to each well in a concentration shown in the plate layout above. At the same time, add 100 μl of media into the control wells (wells B10 to B12). Total volume is 200 μl/well.
(§6) e. Incubate four (4) days at 37° C., 5% CO2 in a humidified incubator.
(§7) f. Add 20 μl Alamar Blue reagent to each well.
(§8) g. Incubate for four (4) hours at 37° C., 5% CO2 in a humidified incubator.
(§9) h. Record fluorescence at an excitation wavelength of 544 nm and emission wavelength of 590 nm using a microplate reader.
(§10) In the assays, cells are cultured with a test compound for approximately four days, the dye is then added to the cells and fluorescence of […] dye is detected after approximately four hours. Different types of cells can be utilized in the assays (e.g., HCT-116 human colorectal carcinoma cells, PC-3 human prostatic cancer cells and MiaPaca human pancreatic carcinoma cells).

[2] = tested on: SUM-149PT; test: Alamar Blue cell proliferation assay, SUM-149PT; type: cell-based; details: Homo sapiens, SUM149PT
Description: as §1, §2, §3, §4, §5, §6, §7, §8, §9, §10

[3] = molecular target: T1, recombinant human CK2 (Homo sapiens, UniProt P68400); test: CK2 assay (cell-free, 33P-ATP filter plate); type: biochemical
T1 construct: purchased Upstate
Description: Modulatory activity of compounds described herein was assessed in vitro in cell-free CK2 assays by the following method.
Test compounds in aqueous solution were added at a volume of 10 microliters, to a reaction mixture comprising 10 microliters Assay Dilution Buffer (ADB; 20 mM MOPS, pH 7.2, 25 mM beta-glycerolphosphate, 5 mM EGTA, 1 mM sodium orthovanadate and 1 mM dithiothreitol), 10 microliters of substrate peptide (RRRDDDSDDD, dissolved in ADB at a concentration of 1 mM), 10 microliters of recombinant human CK2 (25 ng dissolved in ADB; Upstate). Reactions were initiated by the addition of 10 microliters of ATP Solution (90% 75 mM MgCl2, 75 micromolar ATP dissolved in ADB; 10% [γ-^33P]ATP (stock 1 mCi/100 μl; 3000 Ci/mmol (Perkin Elmer) and maintained for 10 minutes at 30 degrees C. The reactions were quenched with 100 microliters of 0.75% phosphoric acid, then transferred to and filtered through a phosphocellulose filter plate (Millipore). After washing each well 5 times with 0.75% phosphoric acid, the plate was dried under vacuum for 5 min and, following the addition of 15 ul of scintillation fluid to each well, the residual radioactivity was measured using a Wallac luminescence counter.

[4] = tested on: MV-4-11; test: Alamar Blue cell proliferation assay, MV-4-11; type: cell-based; details: Homo sapiens, MV4-11, MV-4-11, Table 5, read-out: AB: MV-4-11 IC50
Description: as §1, §2, §3, §4, §5, §6, §7, §8, §9, §10

[5] = tested on: K-562; test: Alamar Blue cell proliferation assay, K-562; type: cell-based; details: Homo sapiens, K562, K-562, Table 5, read-out: AB: K-562 IC50
Description: as §1, §2, §3, §4, §5, §6, §7, §8, §9, §10

[6] = tested on: MDAMB453; test: Alamar Blue cell proliferation assay, MDAMB453; type: cell-based; details: Homo sapiens
Description: as §1, §2, §3, §4, §5, §6, §7, §8, §9, §10

[7] = tested on: BxPC3; test: Alamar Blue cell proliferation assay, BxPC3; type: cell-based; details: Homo sapiens
Description: as §1, §2, §3, §4, §5, §6, §7, §8, §9, §10

[8] = molecular target: recombinant PIM-1 (Homo sapiens, UniProt P11309); test: PIM-1 assay (33P-ATP filter plate); type: biochemical; details: Table 5; read-out: PIM1: IC50
Description: The following procedure was used to assay the PIM-1 kinase activity of compounds of the invention. Other methods for assaying PIM-1 and other PIM kinases, as well as methods to assay for activity against the various kinases are known in the art.
In a final reaction volume of 50 ul, recombinant PIM-1 (1 ng) was incubated with 12 mM MOPS pH 7.0, 0.4 mM EDTA, glycerol 1%, brij 35 0.002%, 2-mercaptoethanol 0.02%, BSA 0.2 mg/ml, 100 uM KKRNRTLTK, 10 mM MgAcetate, 15 uM ATP, [γ-^33P-ATP] (specific activity approx. 500 cpm/pmol), DMSO 4% and test inhibitor compound at the required concentration. The reaction was initiated by the addition of the Magnesium ATP mixture. After 40 min incubation at 23° C., the reactions were quenched by the addition of 100 ul 0.75% Phosphoric acid, and the labeled peptide collected by filtration through a phosphocellulose filter plate. The plate was washed 4 times with 0.075% phosphoric acid (100 ul per well) and then, after the addition of scintillation fluid (20 ul per well), the counts were measured by a scintillation counter.

[9] = molecular target: recombinant human PIM2 (Homo sapiens, UniProt Q9P1W9); test: PIM-2 assay (33P-ATP filter plate); type: biochemical; details: for IC50: Table 5; for inhibition at 2.5 µM: Table 6, read-out: PIM2: % inh @ 2.5 uM
Description: PIM-2 Assay Method: Test compounds dissolved and diluted in DMSO (2 μl) were added to a reaction mixture comprising 10 μl of 5× Reaction Buffer (40 mM MOPS pH 7.0, 5 mM EDTA), 10 μl of recombinant human PIM2 solution (4 ng PIM-2 dissolved in dilution buffer (20 mM MOPS pH 7.0; EDTA 1 mM; 5% Glycerol; 0.01% Brij 35; […]; […] 2-mercaptoethanol; 1 mg/ml BSA)) and 8 ul of water. Reactions were initiated by the addition of 10 ul of ATP Solution (49% (15 mM MgCl2; 75 uM ATP) 1% ([γ-^33P]ATP: Stock 1 mCi/1000; 3000Ci/mmol (Perkin Elmer)) and 10 ul of substrate peptide solution (RSRSSYPAGT, dissolved in water at a concentration of 1 mM), Reactions were maintained for 10 min at 30° C. The reactions were quenched with 100 ul of 0.75% Phosphoric acid, then transferred to and filtered through a Phosphocellulose filter plate (Millipore, MSPH-N6B-50). After washing each well 4 times with 0.75% Phosphoric acid, scintillation fluid (20 uL) was added to each well and the residual radioactivity was measured using a Wallac luminescence counter.

[10] = Table 5, read-out: AB: SUM-149PT IC50
[11] = MDA-MB-453, MDAMB453, Table 5, read-out: AB: MDAMB453 IC50
[12] = BXPC-3, BxPC3, Table 5, read-out: AB: BxPC3 IC50
[13] = Table 6, read-out: AB: SUM-149PT IC50
[14] = MDA-MB-453, MDAMB453, Table 6, read-out: AB: MDAMB453 IC50
[15] = BXPC-3, BxPC3, Table 6, read-out: AB: BxPC3 IC50

Sequence of recombinant human PIM2 (Q9P1W9 whole entry): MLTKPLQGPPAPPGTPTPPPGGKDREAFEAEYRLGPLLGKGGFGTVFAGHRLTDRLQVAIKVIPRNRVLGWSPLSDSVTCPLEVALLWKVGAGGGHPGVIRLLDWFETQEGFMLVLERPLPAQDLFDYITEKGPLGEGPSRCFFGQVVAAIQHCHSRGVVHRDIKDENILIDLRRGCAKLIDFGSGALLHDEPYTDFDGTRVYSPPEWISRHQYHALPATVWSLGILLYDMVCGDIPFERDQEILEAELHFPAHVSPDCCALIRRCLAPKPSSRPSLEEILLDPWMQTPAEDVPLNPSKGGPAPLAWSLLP
Sequence of recombinant PIM-1 (P11309 whole entry): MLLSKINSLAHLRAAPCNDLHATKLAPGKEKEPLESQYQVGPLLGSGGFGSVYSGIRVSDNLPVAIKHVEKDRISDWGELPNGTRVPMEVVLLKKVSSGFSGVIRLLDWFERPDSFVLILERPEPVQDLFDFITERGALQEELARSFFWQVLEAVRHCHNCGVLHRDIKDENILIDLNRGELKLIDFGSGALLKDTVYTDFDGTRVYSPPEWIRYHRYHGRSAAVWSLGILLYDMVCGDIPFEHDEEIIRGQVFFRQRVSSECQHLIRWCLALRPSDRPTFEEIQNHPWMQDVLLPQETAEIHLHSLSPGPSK
T1 sequence (P68400 whole entry): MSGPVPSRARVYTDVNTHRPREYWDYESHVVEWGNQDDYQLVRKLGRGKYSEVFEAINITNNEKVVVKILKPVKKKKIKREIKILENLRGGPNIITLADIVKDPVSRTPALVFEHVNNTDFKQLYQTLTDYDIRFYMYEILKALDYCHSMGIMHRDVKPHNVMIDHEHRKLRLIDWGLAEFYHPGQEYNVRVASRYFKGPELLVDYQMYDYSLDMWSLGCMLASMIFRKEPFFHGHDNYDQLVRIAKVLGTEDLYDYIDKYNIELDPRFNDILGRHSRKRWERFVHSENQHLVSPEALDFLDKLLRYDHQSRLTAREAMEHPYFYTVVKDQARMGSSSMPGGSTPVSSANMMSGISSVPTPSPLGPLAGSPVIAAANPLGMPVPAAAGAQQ
T1 sequence (P67870 whole entry partner): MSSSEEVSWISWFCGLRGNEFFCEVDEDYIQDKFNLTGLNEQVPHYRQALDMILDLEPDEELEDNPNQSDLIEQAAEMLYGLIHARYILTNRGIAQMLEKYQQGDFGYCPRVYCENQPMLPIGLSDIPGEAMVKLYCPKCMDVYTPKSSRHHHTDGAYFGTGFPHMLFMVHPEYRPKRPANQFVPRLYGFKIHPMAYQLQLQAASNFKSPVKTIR

SMILES	IC50 [1] [µM]	IC50 ([3]; Table 5) [µM]	IC50 [4] [µM]	IC50 [5] [µM]	IC50 [6, 11] [µM]	IC50 [7, 12] [µM]	IC50 [8] [µM]	IC50 [9] [µM]	IC50 ([3]; Table 6) [µM]	IC50 [6, 14] [µM]	IC50 [7, 15] [µM]	inhibition at 2.5 µM [9] [%]	IC50 [2, 10] [µM]	IC50 [2, 13] [µM]
O=C(O)c1cccc(-c2ccc(/C=C3\SC(=S)N(Cc4ccccc4)C3=O)o2)c1	> 10													
CN1C(=O)/C(=C/c2ccc(-c3cccc(C(=O)O)c3)o2)SC1=S	> 10													
O=C1NC(=O)/C(=C\c2ccc(F)c(-c3cncc(N4CCCNCC4)n3)c2)S1		< 0.05	1.02	2.91	1.24	4.36	< 0.05	< 0.05					2.35	
CN1CCCN(c2cncc(-c3cc(/C=C4\SC(=S)NC4=O)ccc3F)n2)CC1		< 0.05	0.163	0.186	0.521	2.38	< 0.05	0.05					0.315	
CN1CCCN(c2cncc(-c3cc(/C=C4\SC(=O)NC4=O)ccc3Cl)n2)CC1		0.0921	3.01	> 30	18.4	> 30	< 0.05	< 0.05					> 30	
CN1CCCN(c2cncc(-c3cncc(/C=C4\SC(=O)NC4=O)c3)n2)CC1		0.0106	9.35	> 10	28.3	> 30	< 0.05	< 0.05					> 30	
Cc1ccc(-c2cncc(N3CCCN(C)CC3)n2)cc1/C=C1\SC(=S)NC1=O		< 0.05	2.2	9.7	22.2	16.3	< 0.05	< 0.05					25.7	
Cc1ccc(-c2cncc(N3CCCN(C)CC3)n2)cc1/C=C1\SC(=O)NC1=O		0.05	3.75	6.54	15.5	25.8	< 0.05	0.05					8.7	
CC(C)(C)CC(=O)N1CCCN(c2cncc(-c3cc(/C=C4/SC(=O)NC4=O)ccc3F)n2)CC1		< 0.05	3.23	1.21	2.76	10.2		< 0.05					1.46	
O=C1NC(=O)/C(=C/c2cc(-c3cncc(N4CCCNCC4)n3)cs2)S1									0.00439	27.7	> 30	99.9		25.2
C[C@H](Nc1cncc(-c2csc(/C=C3\SC(=O)NC3=O)c2)n1)C1CC1									0.024	19.2	16.7	99.4		8.72
C[C@H](Nc1cncc(-c2cccc(/C=C3\SC(=O)NC3=O)c2)n1)C1CC1									0.00144	7.21	17.2	99.9		0.703

Continued, in another order:

IC50 [1] [µM]	IC50 ([3]; Table 5) [µM]	IC50 [4] [µM]	IC50 [5] [µM]	IC50 [6, 11] [µM]	IC50 [7, 12] [µM]	IC50 [8] [µM]	IC50 [9] [µM]	IC50 ([3]; Table 6) [µM]	IC50 [6, 14] [µM]	IC50 [7, 15] [µM]	inhibition at 2.5 µM [9] [%]	SMILES	IC50 [2, 10] [µM]	IC50 [2, 13] [µM]
	< 0.05	0.197	0.267	1.18	6.71	< 0.05	< 0.05					CN1CCCN(c2cncc(-c3cc(/C=C4\SC(=O)NC4=O)ccc3F)n2)CC1	1.55	
	< 0.05	2.78	0.321	4.09	23.1		< 0.05					O=C1NC(=O)/C(=C\c2ccc(F)c(-c3cncc(N4CCCN(C(=O)C5CC5)CC4)n3)c2)S1	3.94	
	< 0.05	3.88	3.58	10.9	22.7		< 0.05					CCOC(=O)N1CCCN(c2cncc(-c3cc(/C=C4/SC(=O)NC4=O)ccc3F)n2)CC1	4.18	
	< 0.05	0.374	0.316	0.318	12.7		< 0.05					CC(C)(C)C(=O)N1CCCN(c2cncc(-c3cc(/C=C4/SC(=O)NC4=O)ccc3F)n2)CC1	1.02	
	< 0.05	3.11	1.6	2.69	20		< 0.05					O=C1NC(=O)/C(=C\c2ccc(F)c(-c3cncc(N4CCCN(C(=O)c5ccccc5F)CC4)n3)c2)S1	2.61	
	< 0.05	3.49	2.57	3.98	24.9		< 0.05					O=C1NC(=O)/C(=C\c2ccc(F)c(-c3cncc(N4CCCN(C(=O)OCc5ccccc5)CC4)n3)c2)S1	8.28	
	< 0.05	6.3	9.37	3.81	24		< 0.05					O=C1NC(=O)/C(=C\c2ccc(F)c(-c3cncc(N4CCCN(C(=O)Oc5ccccc5)CC4)n3)c2)S1	6.69	
	< 0.05	2.52	3.65	3.59	18.9		< 0.05					COC(=O)N1CCCN(c2cncc(-c3cc(/C=C4/SC(=O)NC4=O)ccc3F)n2)CC1	2.05	
	< 0.05	> 10	4.3	10	18.8		< 0.05					O=C1NC(=O)/C(=C\c2ccc(F)c(-c3cncc(N4CCCN(C(=O)Nc5ccccc5)CC4)n3)c2)S1	6.15	
	< 0.05	7.7		6.28			< 0.05					CC(C)NC(=O)N1CCCN(c2cncc(-c3cc(/C=C4/SC(=O)NC4=O)ccc3F)n2)CC1	1.56	
